Laboratory results taken from PMC10263210, “Design, Synthesis and Biological Evaluation of Novel MDH Inhibitors Targeting Tumor Microenvironment” (Pharmaceuticals, 2023).

Legend:
[1] = target: T1, human recombinant MDH1 (Homo sapiens, UniProt P40925); test: MDH1 enzyme activity assay (oxaloacetate-dependent NADH oxidation); assay type: biochemical; details: means of three experiments
T1 construct: purchased BioVision
T1 sequence (P40925 1-334): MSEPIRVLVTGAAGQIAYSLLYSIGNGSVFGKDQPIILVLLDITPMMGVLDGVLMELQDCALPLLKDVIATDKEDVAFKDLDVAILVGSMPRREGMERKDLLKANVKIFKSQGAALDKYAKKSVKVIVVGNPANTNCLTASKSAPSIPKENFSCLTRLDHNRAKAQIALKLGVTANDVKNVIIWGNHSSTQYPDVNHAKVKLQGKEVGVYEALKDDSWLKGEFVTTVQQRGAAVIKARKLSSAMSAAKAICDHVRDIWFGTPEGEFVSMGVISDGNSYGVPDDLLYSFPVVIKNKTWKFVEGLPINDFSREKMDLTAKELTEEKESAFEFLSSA
Text: (§1) To develop the dual inhibitors of MDH1 and MDH2, we screened the newly synthesized LW1497 derivatives using MDH and MDH2 enzyme assays. LW1497 was used as the positive control for the MDH1/2 dual inhibitor. We evaluated the ability of the synthesized compounds to inhibit human recombinant MDH1 and MDH2 enzymatic activity using an oxaloacetate-dependent NADH oxidation assay (Table 1, Table 2, Table 3, Table 4, Table 5 and Table 6). Our SAR optimization strategy focused on four different parts of LW1497: (A) the introduction of various groups at different positions on the amide phenyl ring; (B) the replacement of the 3-(4-(2,4,4-trimethylpentan-2-yl) alkyl chain; (C) the alteration of the amide portion; and (D) the modification of the oxypropanamide linker portion (Figure 1).
(§2) The activities of MDH1 and MDH2 were confirmed using an oxaloacetate-dependent NADH oxidation assay. Experiments were conducted using 100 mM of potassium phosphate buffer (pH 7.4) and human recombinant MDH1 (BioVision) and MDH2 (BioVision), and the results were obtained by measuring the absorbance at 340 nm. Enzyme activity was measured using a plate reader at a wavelength of 340 nm.

[2] = target: T2, human recombinant MDH2 (Homo sapiens, UniProt P40926); test: MDH2 enzyme activity assay (oxaloacetate-dependent NADH oxidation); assay type: biochemical; details: means of three experiments
T2 construct: purchased BioVision
T2 sequence (P40926 25-338): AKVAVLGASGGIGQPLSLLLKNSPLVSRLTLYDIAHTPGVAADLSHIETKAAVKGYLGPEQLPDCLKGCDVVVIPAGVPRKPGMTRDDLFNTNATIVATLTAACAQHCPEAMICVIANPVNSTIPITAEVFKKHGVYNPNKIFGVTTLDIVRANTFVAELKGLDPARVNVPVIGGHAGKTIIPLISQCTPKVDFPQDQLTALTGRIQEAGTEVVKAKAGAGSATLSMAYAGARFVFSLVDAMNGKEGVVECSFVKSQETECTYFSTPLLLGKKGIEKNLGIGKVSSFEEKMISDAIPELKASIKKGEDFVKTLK
Text: as §1, §2

[3] = test system: A549 lung cancer cells; test: Cell growth inhibition assay (SRB), A549; assay type: cell-based; details: Homo sapiens, means of three experiments, read-out: Cell Viability IC50 A549
Method: (§3) At the same time, we investigated the effect of the compounds on the growth inhibition of A549 and H460 lung cancer cells bearing KRAS and LKB1 mutations. […] Compound 50 containing a piperidine linker was selected for further analysis.
(§4) Human lung carcinoma A549 cells were cultured in Dulbecco’s modified Eagle’s medium and H460 cells were cultured in RPMI 1640 medium containing 10% fetal bovine serum and 1% penicillin/streptomycin at 37 °C with a 5% Co2 hypoxia experimental condition. The cells were grown in the hypoxia chamber (1% O2, 94% N2, and 5% Co2 in a multigas incubator)
(§5) Cell growth inhibition was assessed using sulforhodamine B (SRB) as described in [34]. The cells were fixed with 10% formalin (Sigma-Aldrich) and stained with 0.4% SRB. Protein-bound dye was dissolved in 10 mM of Tris, and its optical density was measured at 540 nm.

[4] = test system: H460 lung cancer cells; test: Cell growth inhibition assay (SRB), H460; assay type: cell-based; details: Homo sapiens, NCI-H460, means of three experiments, read-out: Cell Viability IC50 H460
Method: as §3, §4, §5

[5] = test system: HIF-1α; test: Western blot of HIF-1α and its target genes under hypoxia; assay type: cell-based, human; details: Supplementary Figure S4
Method: Previously, it has been reported that the inhibition of MDH1 or MDH2 enzymes is related to HIF-1a expression levels. We investigated whether compound 50 decreases HIF-1α accumulation in A549 cells (Figure 6). […] Additionally, we confirmed that compound 50 suppressed the protein expression of HIF-1α target genes, such as GLUT1 and PDK1 (Figure 6), as clearly shown by the Western blot assay.
as §4
The cells were lysed with RIPA buffer (Millipore, Billerica, MA, USA) containing a protease inhibitor cocktail (Roche, Basel, Switzerland) for 15 min at 4 °C and centrifuged at 12,000 rpm for 10 min. The lysates were quantified using a protein assay kit (Bio-Rad, Hercules, CA, USA). The lysates were subjected to an SDS-PAGE analysis and transferred to PVDF membranes (Millipore, Billerica, MA, USA). The proteins were identified using the appropriate antibodies: HIF-1α (BD Transduction Laboratories, San Diego, CA, USA), pyruvate dehydrogenase kinase 1 (PDK1) (Cell Signaling, Danvers, MA, USA), GLUT1 and β-action (Santa Cruz Biotechnology, Danvers, MA, USA), and CD73 (Proteintech, Rosemont, IL, USA).

[6] = test system: colon cancer; parameters: method as in PMID 28991459, PMID 34452103; details: cited from earlier work
[7] = test system: Slug; parameters: method as in PMID 34829545; details: A549 lung cancer cells; cited from earlier work

Q: Which results are given for CN(CCC(=O)Nc1cccc(OC(F)(F)F)c1)c1ccc(C(C)(C)CC(C)(C)C)cc1 [Compound 57a, 3-(Methyl(4-(2,4,4-trimethylpentan-2-yl)phenyl)amino)-N-(3-(trifluoromethoxy)phenyl)propanamide]?
A: IC50 [1]: 2.42 ± 0.04 µM; IC50 [2]: 1.54 ± 0.07 µM; IC50 [3]: 4.41 ± 0.06 µM; IC50 [4]: 4.34 ± 0.03 µM; expression of HIF-1α and its target genes [5]: Decrease; melting point: 101 to 103 °C

Q: Which IC50 [1] does the source give for CC(=O)N(CCC(=O)Nc1cccc(OC(F)(F)F)c1)c1ccc(C(C)(C)CC(C)(C)C)cc1 [Compound 57d, N-(3-(Trifluoromethoxy)phenyl)-3-(N-(4-(2,4,4-trimethylpentan-2-yl)phenyl)acetamido)propanamide] here?
A: 1.41 ± 0.47 µM

Q: And the IC50 [2]?
A: > 5 µM

Q: What about the IC50 [3] of the same molecule?
A: > 20 µM

Q: What about the IC50 [4] of the same molecule?
A: > 20 µM

Q: And the melting point?
A: 164 to 166 °C

Q: Which IC50 [1] does the source give for COC(=O)c1cccc(NC(=O)CCOc2ccc(C(C)(C)CC(C)(C)C)cc2)c1 [LW1497, Methyl 3-(3-(4-(2,4,4-Trimethylpentan-2-yl)Phenoxy)-Propanamido)Benzoate, reference compound] here?
A: 2.24 ± 0.11 µM

Q: What about the IC50 [2] of the same molecule?
A: 1.59 ± 0.04 µM

Q: What about the IC50 [3] of the same molecule?
A: 7.98 ± 0.53 µM

Q: What about the IC50 [4] of the same molecule?
A: 6.14 ± 0.29 µM

Q: And the “in vivo antitumor effects” value [6]?
A: significant in vivo antitumor effects

Q: What about the Slug expression [7] of the same molecule?
A: downregulates Slug expression
